The values below come from ChEMBL document CHEMBL4138295, “Late-Stage Microsomal Oxidation Reduces Drug-Drug Interaction and Identifies Phosphodiesterase 2A Inhibitor PF-06815189” (ACS Med Chem Lett, 2018).

What is called Papp is a coefficient for how fast a substance crosses the barrier. As a reminder, the IC50 is the concentration that inhibits the measured activity by half. In general, half-life refers to how long it takes for the measured level to halve. As a reminder, the inhibition is the relative decrease from the control value, in per cent. Broadly, the bioavailability is dose-corrected exposure relative to a reference, in per cent.

The nature of data set [1]: Apparent permeability in RRCK cells. Particulars: dog, mdckii-le. The format is ADME, cell-based, Canis lupus familiaris.
In data set [2] the target is cGMP-dependent 3',5'-cyclic phosphodiesterase (Homo sapiens, UniProt O00408). As to the kind of experiment: Inhibition of human PDE2A1 using 3',5'-[3H]cGMP as substrate measured after 30 mins by Yttrium silicate scintillation proximity assay. In general terms: SPA uses beads or plates that emit light when radiolabelled molecules are held near them.
Data set [3] addresses Cytochrome P450 3A4 (Homo sapiens, UniProt P08684). Kind of data set: Binding affinity to recombinant human CYP3A4 expressed in microsomes at 1 uM after 3 to 60 mins in presence of NADPH by HPLC-MS analysis. Format: ADME.
A short description of data set [4]: Drug metabolism in cynomolgus monkey liver microsomes assessed as PF-06815189 formation at 20 uM measured after 50 mins by UHPLC-UV analysis. The format is ADME, Macaca fascicularis, microsome. For orientation: Liver microsomes are vesicles of endoplasmic reticulum, rich in cytochrome P450 enzymes.
Data set [5] can be described thus: Drug metabolism in cynomolgus monkey liver microsomes assessed as 7-(3-(hydroxymethyl)-1-methyl-5-(4-(trifluoromethyl)phenyl)-1H-pyrazol-4-yl)-2,5-dimethylimidazo[1,5-f][1,2,4]triazin-4(3H)-one formation at 20 uM measured after 50 mins by UHPLC-UV analysis. The format is ADME, Macaca fascicularis, microsome.
Data set [6] in a line: Drug metabolism in cynomolgus monkey liver microsomes assessed as 5-(hydroxymethyl)-7-(3-(hydroxymethyl)-1-methyl-5-(4-(trifluoromethyl)phenyl)-1H-pyrazol-4-yl)-2-methylimidazo[1,5-f][1,2,4]triazin-4(3H)-one formation at 20 uM measured after 50 mins by UHPLC-UV analysis. Format: ADME, Macaca fascicularis, microsome.
Data set [7] is described as follows: Drug recovery in Wistar-Han rat at 1 mg/kg, iv or 5 mg/kg, po via gavage measured up to 24 hrs by LC-MS/MS analysis. The format is ADME, organism-based. Particulars: in vivo, read-out: Drug recovery.
Data set [8] has as its system Rattus norvegicus. Kind of data set: Oral bioavailability in Wistar-Han rat at 5 mg/kg administered via gavage by LC-MS/MS analysis. The format is ADME, organism-based. The following applies: in vivo.
Data set [9] in a line: Half life in Wistar-Han rat at 1 mg/kg, iv or 5 mg/kg, po via gavage by LC-MS/MS analysis. Format: ADME, organism-based. The following applies: in vivo.
Data set [10] has as its system Rattus norvegicus. Kind of data set: Volume of distribution at steady state in Wistar-Han rat at 1 mg/kg, iv or 5 mg/kg, po via gavage by LC-MS/MS analysis. Format: ADME, organism-based. Particulars: in vivo.
In data set [11] the test system is Cavia porcellus. Kind of data set: Inhibition of histamine-mediated increase in vascular permeability in guinea pig assessed as reduction in extravasation of Evan's blue dye-labeled albumin from blood to skin at 0.3 to 10 mg/kg, sc measured after 30 mins by spectrophotometric method. Format: functional, organism-based.
Data set [12] is filed under the species Homo sapiens. Kind of data set: Selectivity ratio of IC50 for PDE5A1 (unknown origin) to IC50 for human PDE2A1.
Data set [13] has as its target cGMP-specific 3',5'-cyclic phosphodiesterase (Homo sapiens, UniProt O76074). Kind of data set: Inhibition of PDE5A1 (unknown origin) using 3',5'-[3H]cGMP as substrate measured after 30 mins by Yttrium silicate scintillation proximity assay.
For data set [14], the species on record is Homo sapiens. Kind of data set: Inhibition of sodium channel site 2 (unknown origin) at 10 uM relative to control.
Data set [15] deals with Canis familiaris. As to the kind of experiment: Volume of distribution at steady state in Beagle dog at 1 mg/kg, iv or po via gavage by LC-MS/MS analysis. Particulars: in vivo. The format is ADME, organism-based, Canis lupus familiaris.
Data set [16] has as its system Canis familiaris. Kind of data set: Half life in Beagle dog at 1 mg/kg, iv or po via gavage by LC-MS/MS analysis. Particulars: in vivo. The format is ADME, organism-based, Canis lupus familiaris.
Data set [17] is described as follows: Oral bioavailability in Beagle dog at 5 mg/kg administered via gavage by LC-MS/MS analysis. Format: ADME, organism-based, Canis lupus familiaris. Particulars: in vivo.
Data set [18] in a line: Drug recovery in Beagle dog at 1 mg/kg, iv or po via gavage measured up to 24 hrs by LC-MS/MS analysis. Format: ADME, organism-based, Canis lupus familiaris. Particulars: in vivo, read-out: Drug recovery.
Data set [19] relates to Cynomolgus monkey. As to the kind of experiment: Volume of distribution at steady state in cynomolgus monkey at 1 mg/kg, iv or po via gavage by LC-MS/MS analysis. Particulars: in vivo. The format is ADME, organism-based, Macaca fascicularis.
Data set [20] has as its system Cynomolgus monkey. Kind of data set: Half life in cynomolgus monkey at 1 mg/kg, iv or po via gavage by LC-MS/MS analysis. The format is ADME, organism-based, Macaca fascicularis. The following applies: in vivo.
Data set [21] can be described thus: Oral bioavailability in cynomolgus monkey at 5 mg/kg administered via gavage by LC-MS/MS analysis. Format: ADME, organism-based, Macaca fascicularis. The following applies: in vivo.
Data set [22] is described as follows: Drug recovery in cynomolgus monkey at 1 mg/kg, iv or po via gavage measured up to 24 hrs by LC-MS/MS analysis. The following applies: in vivo, read-out: Drug recovery. Format: ADME, organism-based, Macaca fascicularis.

The structures appear in SMILES notation. Calls of active or inactive are those of the source. The rule behind the calls is not given here.

Sequence of cGMP-dependent 3',5'-cyclic phosphodiesterase (O00408 whole entry): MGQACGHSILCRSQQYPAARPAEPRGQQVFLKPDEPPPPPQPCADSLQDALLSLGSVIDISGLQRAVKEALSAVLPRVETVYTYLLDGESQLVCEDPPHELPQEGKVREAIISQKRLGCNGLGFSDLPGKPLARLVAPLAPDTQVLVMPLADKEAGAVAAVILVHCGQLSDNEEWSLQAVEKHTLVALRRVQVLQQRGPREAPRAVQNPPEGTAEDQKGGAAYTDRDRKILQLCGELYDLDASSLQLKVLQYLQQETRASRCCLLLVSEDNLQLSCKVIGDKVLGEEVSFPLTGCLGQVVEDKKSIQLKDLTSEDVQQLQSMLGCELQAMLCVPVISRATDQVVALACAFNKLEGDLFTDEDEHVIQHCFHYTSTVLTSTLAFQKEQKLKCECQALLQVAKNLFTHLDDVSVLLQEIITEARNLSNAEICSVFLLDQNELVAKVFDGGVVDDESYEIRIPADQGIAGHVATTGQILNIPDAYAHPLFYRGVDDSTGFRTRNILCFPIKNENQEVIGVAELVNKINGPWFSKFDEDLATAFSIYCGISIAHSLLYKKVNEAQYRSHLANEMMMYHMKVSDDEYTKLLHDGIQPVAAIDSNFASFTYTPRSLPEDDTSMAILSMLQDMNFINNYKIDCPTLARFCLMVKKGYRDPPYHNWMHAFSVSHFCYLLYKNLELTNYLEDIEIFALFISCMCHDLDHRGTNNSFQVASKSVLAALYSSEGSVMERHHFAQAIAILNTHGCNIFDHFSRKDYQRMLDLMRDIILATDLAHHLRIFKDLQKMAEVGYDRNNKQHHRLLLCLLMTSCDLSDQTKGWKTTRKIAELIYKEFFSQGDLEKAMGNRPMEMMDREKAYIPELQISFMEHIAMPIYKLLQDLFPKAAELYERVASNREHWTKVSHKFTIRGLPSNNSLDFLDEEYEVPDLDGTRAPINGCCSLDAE
Sequence of Cytochrome P450 3A4 (P08684 whole entry): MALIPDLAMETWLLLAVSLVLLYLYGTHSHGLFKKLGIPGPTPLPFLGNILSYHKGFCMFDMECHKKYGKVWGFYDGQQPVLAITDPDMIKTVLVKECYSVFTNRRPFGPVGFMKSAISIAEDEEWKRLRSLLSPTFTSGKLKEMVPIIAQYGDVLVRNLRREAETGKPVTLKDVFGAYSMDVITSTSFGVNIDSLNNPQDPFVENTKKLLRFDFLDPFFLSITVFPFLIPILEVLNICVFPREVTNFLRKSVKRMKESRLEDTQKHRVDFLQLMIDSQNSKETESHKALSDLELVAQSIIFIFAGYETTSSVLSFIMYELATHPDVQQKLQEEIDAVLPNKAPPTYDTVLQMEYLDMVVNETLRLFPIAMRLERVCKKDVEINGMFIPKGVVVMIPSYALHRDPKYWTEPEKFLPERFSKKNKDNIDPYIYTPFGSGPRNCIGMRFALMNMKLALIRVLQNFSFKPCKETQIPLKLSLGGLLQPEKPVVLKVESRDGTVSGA

`Cc1nn2c(-c3c(CO)nn(C)c3-c3ccc(C(F)(F)F)cc3)nc(CO)c2c(=O)[nH]1`: the apparent permeability coefficient (Papp) in data set [1] was 5 ×10⁻⁶ cm/s.

`Cc1nn2c(-c3c(CO)nn(C)c3-c3ccc(C(F)(F)F)cc3)nc(C)c2c(=O)[nH]1`: the Papp in data set [1] stood at 17 ×10⁻⁶ cm/s. Further, in [2], the IC50 turned out to be 6.9 nM.

On to `Cc1nn2c(-c3c(C)nn(C)c3-c3ccc(C(F)(F)F)cc3)nc(C)c2c(=O)[nH]1`, for which the outcome in data set [3] was Active. The same compound gave an IC50 in [2] of 0.6 nM. The Drug metabolism result in [4], in data set [5] and in [6] was “Metabolite_Detected” each time.

As for `Cc1nn2c(-c3c(C)nn(C)c3-c3ccc(C(F)(F)F)cc3)nc(CO)c2c(=O)[nH]1`, the dose excreted at 24 h in [7] is 22%; in data set [18], 48%; in [22], 26%. Besides, in [8], the F was 50%. This compound also had a half-life in data set [9] of 1.2 h. Besides, the Vdss in data set [10] was 1.5 L/kg; in data set [15], 0.4 L/kg; in data set [19], 0.8 L/kg. The inhibition result in data set [11] is “Active”. The Ratio IC50 in data set [12] was determined as 1000. In addition, the figures for the IC50 in data set [13] and in data set [2] were 2440 nM and 0.4 nM, respectively. For the same compound, the Papp in data set [1] turned out to be 8 ×10⁻⁶ cm/s. The inhibition in [14] is 17%. Moreover, the t1/2 came to 4.8 h in [16] and 3.6 h in [20]. Besides, the bioavailability worked out at 79% in data set [17] and 61% in data set [21].
